Experimental data taken from patent US20070099938A1, “Antistress drug and medical use thereof” (ONO PHARMACEUTICAL CO., LTD., priority 2003, published 2007).

Molecular target: T1, MBR (Rattus norvegicus, UniProt P16257)
T1 construct: from tissue; host or cells: whole brain without cerebellum of male Wistar rats, crude membrane pellet
Assay: Receptor binding experiment ([3H]PK11195 competition, rat brain membrane preparation)
Conditions: [3H]PK11195 0.5 or 1 nmol/L, Cheng and Prusoff from KD and IC50
Procedure: The affinity of the compounds in the present invention to MBR was determined using rat brain membrane preparation. In addition, the measurement in the present invention was improved the accuracy of measurement and the sensitivity of measurement for evaluating the compounds in the present invention as follows. After male Wister rats were decapitated to extirpate the whole brain and cerebellums were removed. They were homogenized in ice-cold 50 mmol/L Tris-HCL buffer solution (pH 7.4), centrifuged and the obtained pellets were washed. The pellets resuspended and adjusted to about 1 mg/mL were used as rat brain membrane preparations for binding assay. The binding assay were experimented using [^3H]PK11195 as a MBR selective ligand. […]
To determine the amount of total binding in saturation binding experiment, membrane preparations, various concentrations of [^3H]PK11195, final concentration: 0.5 vol % dimethylsulfoxide (DMSO) and 50 mmol/L Tris-HCL buffer solution (pH 7.4) were mixed (total volume 200 μL) and were incubated for 1 hour at room temperature. […] The filter was dried and then the radioactivity on the filter was measured by liquid scintillation counter. The data obtained by the binding experiments were Scatchard analyzed using analysis software, KELL (Ver.6, BIOSOFT) and the dissociation constant (KD value) was determined. […]

SMILES | Ki [nM]
O=S(=O)(Nc1nccc(-c2cc(OC(F)F)ccc2OC(F)F)n1)c1ccccc1 [Example 5(2), N-{4-[2,5-bis(difluoromethoxy)phenyl]pyrimidin-2-yl}benzenesulfonamide] | 10
CC(=O)Nc1cccc(-c2ccnc(NC(=O)c3ccccc3)n2)c1 [Example 3(46), N-{4-[3-(acetylamino)phenyl]pyrimidin-2-yl}benzamide] | 360
